B1: PRR1, 15-residue peptide found N-terminal to AbpSH3 (residues 516 to 530 in Abp1p) (peptide, UniProt P15891 516-530, looked up)
peptide: Ac-AAPPPPPRRATPEKK-NH2
notes: residues 516 to 530 of yeast Abp1p, proline-rich region N-terminal to the SH3 domain, 15 residues; source: synthetic peptide (Biomer tech), purified to greater than 95% by HPLC

Key:
[1] = system: Abp1p SH3 domain (AbpSH3); assay: Co-linear chemical shift perturbation (CCSP) analysis of peptide-saturated AbpSH3 complexes by NMR; type: binding, yeast; details: rank among the 24 complexes; >99% peptide-saturated
Description: NMR experiments were carried out at 30°C on Varian 500 MHz spectrometers equipped with pulsed field gradients and a triple resonance probe with actively shielded z-gradients. Data were processed and analyzed using nmrPipe/nmrDraw and nmrView. All spectra were recorded in 50 mM sodium phosphate, 100 mM NaCl, 1 mM EDTA pH 7.0. ^1H-^15N HSQC spectra were collected using standard methods. ^1H-^13C HSQC spectra were recorded using constant time HSQC experiments.
AbpSH3 complexes were assigned using the established assignments of ArkA-bound and free AbpSH3 [8]; serial peptide additions were used to monitor the direction that the peaks moved to assign the final position of the SH3 resonances. […] The assignments were also compared to the previously determined ArkA-AbpSH3 complex resonances. […]
The combined ^1H and ^15N chemical shift differences (in ppm) between each pair of resonances that define the lines x, y and z were calculated using the following expression: δΔ = √((Nppm shift * 0.1)^2+(Hppm shift)^2), where Nppm shift is the difference in ppm in the nitrogen dimension and Hppm is the difference in ppm in the proton dimension. The perpendicular distance (p) between the resonance and the CCSP line was calculated in the following way: p = √(x^2−s^2), where x = length of line connecting resonance to peptide free resonance and s = scalar projection. […]

[2] = system: Abp1p SH3 domain (AbpSH3); assay: Isothermal titration calorimetry of peptide binding to AbpSH3; parameters: species or system yeast
Description: Binding isotherms were recorded as previously at 30°C [23]. Enthalpy changes were measured at 4 different temperatures (20, 25, 30, 35°C) and the slopes of temperature vs. enthalpy change were fit to yield the change in heat capacity. All samples were in 50 mM sodium phosphate, 100 mM NaCl, 1 mM EDTA pH 7.0. Errors are ±95% confidence intervals except the ΔCP values, which report the standard error of the least squared fit to the data (ΔH vs. temperature).

[3] = system: Abp1p SH3 domain (AbpSH3); assay: Hydrogen exchange protection of AbpSH3 complexes by NMR; type: binding, yeast; details: sum of log amide protection factors of SII residues; 99% peptide-saturated 100 µM AbpSH3 in D2O, pH 7.0, 18°C, HSQC every 20 minutes over 24 hours
Description: All hydrogen exchange experiments were conducted in 50 mM sodium phosphate, 100 mM NaCl, 1 mM EDTA pH 7.0, 18°C. Based on the known binding constants, sufficient peptide was added to 100 µM AbpSH3 such that 99% saturation was achieved (this was confirmed by comparing the chemical shifts of previously recorded peptide-saturated samples) for 7 different AbpSH3 complexes (Table S4). The samples were lyophilized and resuspended in D2O, and ^1H-^15N HSQC spectra were recorded every 20 minutes over a period of 24 hours. Many peaks disappeared over time. Intensities of peaks were fit to exponential curves, to yield observed rate constants (kexchange) for each amide group. The rate constant was converted to log protection factor (P), log10(kintrinsic/kexchange) using values for amide protection of free amino acids (http://hx2.med.upenn.edu/download.html). […] These residues became protected to different degrees in the different complexes although they all still exchanged sufficiently fast for their rates to be accurately calculated within the timeframe of the experiment. The biggest difference for the sum between complexes is about 20, which corresponds to a residue ΔΔG of −2.8 kcal/mol, which is approximately the difference between the strongest and weakest peptide binding energy.

[4] = target: T1, Abp1p SH3 domain (SH3 domain from the yeast Actin Binding Protein 1) (yeast, UniProt P15891 532-592); assay: NMR titration; 1H-15N HSQC of AbpSH3 (70-100 µM) with serial peptide additions to 99% or greater saturation; 30°C; 50 mM sodium phosphate, 100 mM NaCl, 1 mM EDTA pH 7.0; details: both partners purified
T1 construct: 15N-labelled for the NMR work; also called AbpSH3
T1 sequence (looked up): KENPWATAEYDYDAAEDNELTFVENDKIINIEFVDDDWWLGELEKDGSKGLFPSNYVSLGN

| Molecule | CCSP values in AbpSH3 [1] | change in heat capacity (ΔCp) on complex formation ([2]; ITC, enthalpy changes at 20, 25, 30, 35°C, slope of ΔH vs. temperature, 50 mM sodium phosphate, 100 mM NaCl, 1 mM EDTA pH 7.0) [kcal/mol K] | binding energy ([2]; rank among the 24 complexes, ITC at 30°C) | SII hydrogen exchange protection (Σ LogP in SII) [3] | binding result [4] |
| --- | --- | --- | --- | --- | --- |
| PRR: 15-residue peptide found N-terminal to AbpSH3 (residues 516 to 530 in Abp1p) (Ac-AAPPPPPRRATPEKK-NH2) | lowest | ~0 | the lowest measured | ~0 |  |
| B1 |  |  |  |  | binds |
